Laboratory results reported in patent US8653260B2, “Hydroxymethyl pyrrolidines as beta 3 adrenergic receptor agonists” (Merck Sharp & Dohme Corp., priority 2008, dated 2014).
Like-named read-outs stand apart in the source and are kept apart here. Each block holds one molecule with its values, some of them ahead of it.

Legend:
[1] = molecular target: T1, human β3 adrenergic receptor (Homo sapiens, UniProt P13945); assay: Functional assay: cAMP production (LANCE) in CHO cells expressing β3 adrenergic receptor; assay type: cell-based
T1 construct: expressed in transfected cells; host or cells: CHO cells, stably transfected
T1 sequence (P13945 whole entry): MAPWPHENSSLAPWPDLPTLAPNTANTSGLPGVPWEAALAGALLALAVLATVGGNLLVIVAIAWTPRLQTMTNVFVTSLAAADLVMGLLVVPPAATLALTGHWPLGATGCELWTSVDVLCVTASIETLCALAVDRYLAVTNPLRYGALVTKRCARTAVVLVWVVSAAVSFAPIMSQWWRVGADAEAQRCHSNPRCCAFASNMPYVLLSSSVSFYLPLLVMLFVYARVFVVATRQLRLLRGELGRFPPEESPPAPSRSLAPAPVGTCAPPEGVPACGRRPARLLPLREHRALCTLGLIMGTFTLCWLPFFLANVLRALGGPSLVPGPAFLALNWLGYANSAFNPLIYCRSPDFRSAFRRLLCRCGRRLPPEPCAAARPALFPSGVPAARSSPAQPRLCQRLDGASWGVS
Protocol: Chinese hamster ovary (CHO) cells, stably transfected with the cloned β-adrenergic receptor (β1, β2 or β3) are harvested after 3 days of subculturing. Harvesting of cells is done with Enzyme-free Dissociation Media (Specialty Media). Cells are then counted and resuspended in assay buffer (Hank's Balanced salt solution supplemented with 5 mM HEPES, 0.1% BSA) containing a phosphodiesterase inhibitor (IBMX, 0.6 mM). The reaction is initiated by mixing 6,000 cells in 6 μL with 6 μL Alexa Fluor labeled cAMP antibody (LANCE™ kit) which is then added to an assay well containing 12 μL of compound (diluted in assay buffer to 2× final concentration). The reaction proceeds for 30 min at room temperature and is terminated by the addition of 24 μL detection buffer (LANCE™ kit). The assay plate is then incubated for 1 h at room temperature and time-resolved fluorescence measured on a Perkin Elmer Envision reader or equivalent. The unknown cAMP level is determined by comparing fluorescence levels to a cAMP standard curve.
The non-selective, full agonist β-adrenergic ligand isoproterenol is used at all three receptors to determine maximal stimulation. […] Data are analyzed using Microsoft Excel and Graphpad Prism or an internally developed data analysis software package.

rats = settings: intravenous administration, cited from earlier work
[2] = cAMP production, CHO cells, given as a range, read-out: human β3 functional activity

Structure (SMILES): C[C@H](Cc1ccc2c(c1)OC(C(=O)[O-])(C(=O)[O-])O2)NC[C@H](O)c1cccc(Cl)c1.[Na+].[Na+] [CL316243]
- bladder capacity (rats; cystometric studies): increases bladder capacity
- bladder pressure (rats): reduces bladder pressure

Structure (SMILES): Cc1nc(CC(=O)Nc2ccc(C[C@@H]3CC[C@H]([C@H](O)c4ccccc4)N3)cc2)c(C)s1 [Example 10]
- EC50 ([1]; Table 4, text b832: human β3 functional activity, read-out: Human β3 Binding): 1 to 10 nM

Structure (SMILES): O=C(Nc1ccc(C[C@@H]2CC[C@H]([C@H](O)c3ccccc3)N2)cc1)[C@@H]1CCc2cccc(=O)n21 (single isomer, unassigned) [Example 101]
- EC50 [1, 2]: 1 to 10 nM

The remaining lines, values ahead:

- EC50 [1, 2]: < 1 nM
Structure (SMILES): O=C(Nc1ccc(C[C@@H]2CC[C@H]([C@H](O)c3ccccc3)N2)cc1)C1CCc2cccc(=O)n21 (single isomer, unassigned) [Example 102]

- EC50 ([1]; Table 5, read-out: Human β3 Functional): 1 to 10 nM
Structure (SMILES): CC(C(=O)Nc1ccc(C[C@@H]2CC[C@H]([C@H](O)c3ccccc3)N2)cc1)n1ccccc1=O (single isomer, unassigned) [Example 203]

- EC50 ([1]; human β3 functional activity, given as ranges, read-out: Human β3 Functional): 1 to 10 nM
Structure (SMILES): Nc1nc2c(s1)CCC2C(=O)Nc1ccc(CC2CCC(C(O)c3ccc(F)cc3)N2)cc1 (single isomer, unassigned) [Example 308]
